From patent US6489469B1, “Method for storing or transporting erythritol solution” (Nikken Chemicals Co., Ltd., priority 1999, dated 2002)

Columns and labels:
[1] = Long-term Stability of Erythritol Solution by High Temperature Storage; format: physicochemical; set-up: change in the degree of coloring / Degree of Coloring: scale not given here
Protocol: solutions having erythritol concentrations of 50%, 55%, 58% and 62%, respectively, were prepared and stored at 55° C., 60° C., 65° C. and 75° C. respectively, for 2 months and degree of coloring, pH, and purity were measured and the degree of deterioration was studied.

[2] = tested on: Saccharomyces cerevisiae ATCC 9763; assay: Viable Count of Saccharomyces cerevisiae ATCC 9763 in Erythritol Solution; format: cell-based
Protocol: Erythritol solutions of respective concentrations in the range of from 30 to 60% were prepared. To these were inoculated Staphylococcus aureus IFO 13276, Bacillus subtilis IFO 3134, and Escherichia coli IFO 3972 as bacteria, Candida albicans IFO 1549 and Saccharomyces cerevisiae ATCC 9763 as yeasts, Aspergillus niger IFO 6342, Aspergillus flavus IFO 6343, and Penicillium funiculosum IFO 6345 as fungi, respectively, in a population (concentration) of 10,000 cells/mL or more. After the inoculation, the solutions were stored at 30, 37, 45, 50, or 60° C., respectively, for 56 days and the number of viable cell was determined daily. The determination of the number of viable cell was performed by a method of coating 0.1 mL of appropriately diluted sample cultivation on an agar plate and cultivating and counting the number of viable cell (the number of colony) that grew after the cultivation.

[3] = 75° C., short period of 10 days or less
[4] = Storage Temperature: 55° C., Erythritol Concentration: 50%, 0 days
[5] = Storage Temperature: 55° C., Erythritol Concentration: 50%, 10 days
[6] = Storage Temperature: 55° C., Erythritol Concentration: 50%, 30 days
[7] = Storage Temperature: 55° C., Erythritol Concentration: 50%, 60 days
[8] = Storage Temperature: 60° C., Erythritol Concentration: 55%, 0 days
[9] = Storage Temperature: 60° C., Erythritol Concentration: 55%, 10 days
[10] = Storage Temperature: 60° C., Erythritol Concentration: 55%, 30 days
[11] = Storage Temperature: 60° C., Erythritol Concentration: 55%, 60 days
[12] = Storage Temperature: 65° C., Erythritol Concentration: 58%, 0 days
[13] = Storage Temperature: 65° C., Erythritol Concentration: 58%, 10 days
[14] = Storage Temperature: 65° C., Erythritol Concentration: 58%, 30 days
[15] = Storage Temperature: 65° C., Erythritol Concentration: 58%, 60 days
[16] = Storage Temperature: 75° C., Erythritol Concentration: 62%, 0 days
[17] = Storage Temperature: 75° C., Erythritol Concentration: 62%, 10 days
[18] = Storage Temperature: 75° C., Erythritol Concentration: 62%, 30 days
[19] = Storage Temperature: 75° C., Erythritol Concentration: 62%, 60 days

OC[C@@H](O)[C@@H](O)CO [Erythritol Solution, erythritol]
change in pH [1, 3]: ≤ 1 | change in purity [1, 3]: no change | change in the degree of coloring [1, 3]: ≤ 0.01 | Degree of Coloring [1, 4]: 0.028 | Purity (%) [1, 4]: 99.9% | pH [1, 4]: 5.7 | Degree of Coloring [1, 5]: 0.028 | Purity (%) [1, 5]: 99.9% | pH [1, 5]: 5.6 | Degree of Coloring [1, 6]: 0.026 | Purity (%) [1, 6]: 100.0% | pH [1, 6]: 5.4 | Degree of Coloring [1, 7]: 0.027 | Purity (%) [1, 7]: 100.0% | pH [1, 7]: 5.1 | Degree of Coloring [1, 8]: 0.021 | Purity (%) [1, 8]: 99.9% | pH [1, 8]: 5.7 | Degree of Coloring [1, 9]: 0.021 | Purity (%) [1, 9]: 99.9% | pH [1, 9]: 5.4 | Degree of Coloring [1, 10]: 0.023 | Purity (%) [1, 10]: 99.9% | pH [1, 10]: 5.5 | Degree of Coloring [1, 11]: 0.028 | Purity (%) [1, 11]: 99.9% | pH [1, 11]: 5.0 | Degree of Coloring [1, 12]: 0.029 | Purity (%) [1, 12]: 100.0% | pH [1, 12]: 5.7 | Degree of Coloring [1, 13]: 0.030 | Purity (%) [1, 13]: 99.9% | pH [1, 13]: 5.5 | Degree of Coloring [1, 14]: 0.029 | Purity (%) [1, 14]: 100.0% | pH [1, 14]: 5.2 | Degree of Coloring [1, 15]: 0.036 | Purity (%) [1, 15]: 99.9% | pH [1, 15]: 4.7 | Degree of Coloring [1, 16]: 0.025 | Purity (%) [1, 16]: 99.9% | pH [1, 16]: 5.7 | Degree of Coloring [1, 17]: 0.027 | Purity (%) [1, 17]: 99.9% | pH [1, 17]: 5.2 | Degree of Coloring [1, 18]: 0.033 | Purity (%) [1, 18]: 99.9% | pH [1, 18]: 4.8 | Degree of Coloring [1, 19]: 0.065 | Purity (%) [1, 19]: 99.9% | pH [1, 19]: 3.9 | storage stability (purity, coloring) ([1]; storage at a temperature of 55 to 65° C.): without causing a decrease in purity or causing coloring | The Number of Viable Cell ([2]; 37° C., 30% w/w, Day 0): ≥ 10000 cells/mL | The Number of Viable Cell ([2]; 37° C., 30% w/w, Day 3): ≥ 10000 cells/mL | The Number of Viable Cell ([2]; 37° C., 30% w/w, Day 7): ≥ 10000 cells/mL | The Number of Viable Cell ([2]; 37° C., 30% w/w, Day 14): ≥ 10000 cells/mL | The Number of Viable Cell ([2]; 37° C., 30% w/w, Day 28): ≥ 10000 cells/mL | The Number of Viable Cell ([2]; 37° C., 30% w/w, Day 56): 0 cells/mL | The Number of Viable Cell ([2]; 37° C., 40% w/w, Day 0): ≥ 10000 cells/mL | The Number of Viable Cell ([2]; 37° C., 40% w/w, Day 3): ≥ 10000 cells/mL | The Number of Viable Cell ([2]; 37° C., 40% w/w, Day 7): ≥ 10000 cells/mL | The Number of Viable Cell ([2]; 37° C., 40% w/w, Day 14): ≥ 10000 cells/mL | The Number of Viable Cell ([2]; 37° C., 40% w/w, Day 28): 1130 cells/mL | The Number of Viable Cell ([2]; 37° C., 40% w/w, Day 56): 0 cells/mL | The Number of Viable Cell ([2]; 45° C., 30% w/w, Day 0): ≥ 10000 cells/mL | The Number of Viable Cell ([2]; 45° C., 30% w/w, Day 3): 1480 cells/mL | The Number of Viable Cell ([2]; 45° C., 30% w/w, Day 7): 0 cells/mL | The Number of Viable Cell ([2]; 45° C., 30% w/w, Day 14): 0 cells/mL | The Number of Viable Cell ([2]; 45° C., 30% w/w, Day 28): 0 cells/mL | The Number of Viable Cell ([2]; 45° C., 30% w/w, Day 56): 0 cells/mL | The Number of Viable Cell ([2]; 45° C., 40% w/w, Day 0): ≥ 10000 cells/mL | The Number of Viable Cell ([2]; 45° C., 40% w/w, Day 3): 1440 cells/mL | The Number of Viable Cell ([2]; 45° C., 40% w/w, Day 7): 0 cells/mL | The Number of Viable Cell ([2]; 45° C., 40% w/w, Day 14): 0 cells/mL | The Number of Viable Cell ([2]; 45° C., 40% w/w, Day 28): 0 cells/mL | The Number of Viable Cell ([2]; 45° C., 40% w/w, Day 56): 0 cells/mL | The Number of Viable Cell ([2]; 45° C., 50% w/w, Day 0): ≥ 10000 cells/mL | The Number of Viable Cell ([2]; 45° C., 50% w/w, Day 3): 1600 cells/mL | The Number of Viable Cell ([2]; 45° C., 50% w/w, Day 7): 0 cells/mL | The Number of Viable Cell ([2]; 45° C., 50% w/w, Day 14): 0 cells/mL | The Number of Viable Cell ([2]; 45° C., 50% w/w, Day 28): 0 cells/mL | The Number of Viable Cell ([2]; 45° C., 50% w/w, Day 56): 0 cells/mL | The Number of Viable Cell ([2]; 50° C., 30% w/w, Day 0): ≥ 10000 cells/mL | The Number of Viable Cell ([2]; 50° C., 30% w/w, Day 3): 0 cells/mL | The Number of Viable Cell ([2]; 50° C., 30% w/w, Day 7): 0 cells/mL | The Number of Viable Cell ([2]; 50° C., 30% w/w, Day 14): 0 cells/mL | The Number of Viable Cell ([2]; 50° C., 30% w/w, Day 28): 0 cells/mL | The Number of Viable Cell ([2]; 50° C., 30% w/w, Day 56): 0 cells/mL | The Number of Viable Cell ([2]; 50° C., 40% w/w, Day 0): ≥ 10000 cells/mL | The Number of Viable Cell ([2]; 50° C., 40% w/w, Day 3): 0 cells/mL | The Number of Viable Cell ([2]; 50° C., 40% w/w, Day 7): 0 cells/mL | The Number of Viable Cell ([2]; 50° C., 40% w/w, Day 14): 0 cells/mL | The Number of Viable Cell ([2]; 50° C., 40% w/w, Day 28): 0 cells/mL | The Number of Viable Cell ([2]; 50° C., 40% w/w, Day 56): 0 cells/mL | The Number of Viable Cell ([2]; 50° C., 50% w/w, Day 0): ≥ 10000 cells/mL | The Number of Viable Cell ([2]; 50° C., 50% w/w, Day 3): 0 cells/mL | The Number of Viable Cell ([2]; 50° C., 50% w/w, Day 7): 0 cells/mL | The Number of Viable Cell ([2]; 50° C., 50% w/w, Day 14): 0 cells/mL | The Number of Viable Cell ([2]; 50° C., 50% w/w, Day 28): 0 cells/mL | The Number of Viable Cell ([2]; 50° C., 50% w/w, Day 56): 0 cells/mL | growth of the microbes ([2]; temperature of 50° C. or more): prevented from growing | time after which microbes died ([2]; temperature of 50° C. or more): 3 days
